From ChEMBL document CHEMBL5136973, “Update on the Development of MNK Inhibitors as Therapeutic Agents” (J Med Chem, 2022)

What was measured:
[1] = target: T1, MAP kinase-interacting serine/threonine-protein kinase 1 (Homo sapiens, UniProt Q9BUB5); test: Inhibition of Mnk1 (unknown origin)
[2] = target: T2, MAP kinase-interacting serine/threonine-protein kinase 2 (Homo sapiens, UniProt Q9HBH9); test: Inhibition of Mnk2 (unknown origin)
Target sequence in this assay (Q9HBH9 whole entry): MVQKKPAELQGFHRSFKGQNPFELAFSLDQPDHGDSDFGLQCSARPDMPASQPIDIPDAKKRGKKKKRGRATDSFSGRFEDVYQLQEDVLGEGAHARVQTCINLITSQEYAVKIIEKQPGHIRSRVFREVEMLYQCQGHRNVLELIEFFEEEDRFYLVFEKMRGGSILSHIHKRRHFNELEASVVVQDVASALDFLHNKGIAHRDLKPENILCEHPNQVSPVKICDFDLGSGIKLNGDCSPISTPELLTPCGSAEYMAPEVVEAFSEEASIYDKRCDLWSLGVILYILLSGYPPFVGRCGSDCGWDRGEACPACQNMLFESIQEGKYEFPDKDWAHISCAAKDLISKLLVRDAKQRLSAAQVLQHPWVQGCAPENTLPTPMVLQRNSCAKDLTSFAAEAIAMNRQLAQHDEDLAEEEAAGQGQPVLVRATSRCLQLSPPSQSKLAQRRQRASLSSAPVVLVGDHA

[3] = system: MV4-11; test: Growth inhibition of human MV4-11 cells measured after 72 hrs; format: functional
[4] = target: T1, MAP kinase-interacting serine/threonine-protein kinase 1; test: Binding affinity to Mnk1 (unknown origin)
[5] = target: T2, MAP kinase-interacting serine/threonine-protein kinase 2; test: Binding affinity to Mnk2 (unknown origin)
Target sequence in this assay (Q9HBH9 whole entry): as above

[6] = target: T2, MAP kinase-interacting serine/threonine-protein kinase 2; test: Inhibition of His-tagged Mnk2 (unknown origin) using eIF4E-derived (D 202 TATKSGSTTKNR 214) peptide as substrate incubated for 90 mins by IMAP TR-FRET assay
Target sequence in this assay (Q9HBH9 whole entry): as above

[7] = target: T1, MAP kinase-interacting serine/threonine-protein kinase 1; test: Inhibition of Mnk1 (unknown origin) using eIF4E-derived (D 202 TATKSGSTTKNR 214) peptide as substrate incubated for 90 mins by IMAP TR-FRET assay
[8] = target: T1, MAP kinase-interacting serine/threonine-protein kinase 1; test: Inhibition of Mnk1 (unknown origin) by ADP-Glo assay
[9] = target: T2, MAP kinase-interacting serine/threonine-protein kinase 2; test: Inhibition of Mnk2 (unknown origin) by ADP-Glo assay
Target sequence in this assay (Q9HBH9 whole entry): as above

[10] = target: T1, MAP kinase-interacting serine/threonine-protein kinase 1; test: Inhibition of inactive form of MNK1 (unknown origin)
[11] = target: T2, MAP kinase-interacting serine/threonine-protein kinase 2; test: Inhibition of MNK2 (unknown origin) at 123 nM
Target sequence in this assay (Q9HBH9 whole entry, looked up): as the sequence (Q9HBH9 whole entry) above

[12] = target: T2, MAP kinase-interacting serine/threonine-protein kinase 2; test: Binding affinity to His-tagged Mnk2 (unknown origin) using D 202 TATKSGSTTKNR 214 as substrate by TR-FRET assay
Target sequence in this assay (Q9HBH9 whole entry): as above

[13] = system: MV4-11; test: Growth inhibition of human MV4-11 cells incubated for 72 hrs by multilabel plate reader method; format: functional
[14] = Growth inhibition of human Acute myeloid leukemic cells incubated for 72 hrs by multilabel plate reader method; format: functional; conditions: Acute myeloid leukemic cell
[15] = target: T3, Tyrosine-protein kinase JAK3 (Homo sapiens, UniProt P52333); test: Inhibition of JAK3 (unknown origin)
T3 sequence (P52333 whole entry): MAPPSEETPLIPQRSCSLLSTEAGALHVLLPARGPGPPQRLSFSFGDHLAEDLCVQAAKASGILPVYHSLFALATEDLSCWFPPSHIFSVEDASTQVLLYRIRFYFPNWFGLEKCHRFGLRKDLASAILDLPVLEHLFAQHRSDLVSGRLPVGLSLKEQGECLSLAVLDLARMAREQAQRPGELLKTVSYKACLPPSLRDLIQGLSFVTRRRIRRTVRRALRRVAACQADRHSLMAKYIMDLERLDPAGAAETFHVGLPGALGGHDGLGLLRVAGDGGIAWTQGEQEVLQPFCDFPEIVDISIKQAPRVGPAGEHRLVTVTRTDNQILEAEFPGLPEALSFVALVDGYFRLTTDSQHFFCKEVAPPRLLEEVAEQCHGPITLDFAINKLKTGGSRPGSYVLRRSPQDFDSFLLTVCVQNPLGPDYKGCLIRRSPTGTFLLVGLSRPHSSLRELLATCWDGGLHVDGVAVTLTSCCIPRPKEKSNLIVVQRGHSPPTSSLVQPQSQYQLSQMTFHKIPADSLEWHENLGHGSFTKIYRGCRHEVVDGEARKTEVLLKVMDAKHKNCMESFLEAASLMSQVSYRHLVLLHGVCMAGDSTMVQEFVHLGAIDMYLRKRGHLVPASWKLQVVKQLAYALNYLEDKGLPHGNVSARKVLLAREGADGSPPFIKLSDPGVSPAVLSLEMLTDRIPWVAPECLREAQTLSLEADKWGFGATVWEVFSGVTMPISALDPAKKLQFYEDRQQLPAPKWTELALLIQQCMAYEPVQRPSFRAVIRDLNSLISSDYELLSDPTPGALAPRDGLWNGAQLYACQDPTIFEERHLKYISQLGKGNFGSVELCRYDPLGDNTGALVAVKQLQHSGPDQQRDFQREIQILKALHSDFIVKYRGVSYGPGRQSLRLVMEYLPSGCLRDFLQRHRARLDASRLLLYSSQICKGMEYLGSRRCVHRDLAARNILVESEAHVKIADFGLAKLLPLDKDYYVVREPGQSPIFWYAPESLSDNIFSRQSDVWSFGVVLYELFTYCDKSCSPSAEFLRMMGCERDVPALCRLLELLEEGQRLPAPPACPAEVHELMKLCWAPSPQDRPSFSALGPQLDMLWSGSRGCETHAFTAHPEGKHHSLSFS

[16] = target: T1, MAP kinase-interacting serine/threonine-protein kinase 1; test: Inhibition of FLAG-tagged Mnk1 (unknown origin) transfected into HEK293 cells incubated for 30 mins followed by ATP addition measured after 30 mins by Western blotting analysis; format: cell-based
[17] = target: Tyrosine-protein kinase BTK (Homo sapiens, UniProt Q06187); test: Inhibition of FLAG-tagged BTK (unknown origin) transfected into HEK293T cells incubated for 30 mins followed by ATP addition measured after 20 mins by Western blotting analysis; format: cell-based, HEK293
[18] = target: T2, MAP kinase-interacting serine/threonine-protein kinase 2; test: Inhibition of FLAG-tagged Mnk2 (unknown origin) transfected into HEK293 cells incubated for 30 mins followed by ATP addition measured after 30 mins by Western blotting analysis; format: cell-based
Target sequence in this assay (Q9HBH9 whole entry): as the sequence (Q9HBH9 whole entry) above

[19] = system: SK-OV-3; test: Antiproliferative activity against human SK-OV-3 cells; format: functional
[20] = system: MOLM-13; test: Antiproliferative activity against human MOLM-13 cells; format: functional
[21] = system: A2780; test: Antiproliferative activity against human A2780 cells; format: functional
[22] = system: PC-3; test: Antiproliferative activity against human PC-3 cells; format: functional
[23] = Volume of distribution at steady state in male RH:Foxn1 nude rat; format: ADME; conditions: in vivo, read-out: Vdss
[24] = Antitumor activity against human Lu7462 patient-derived NSCLC cells xenografted in female NMRI-nu/nu mouse assessed as T/C ratio at 200 mg/kg, po, qd for 94 days; format: functional; conditions: time 94 day
[25] = Clearance in female NMRI-nu/nu mouse; format: ADME; conditions: in vivo
[26] = Oral bioavailability in female NMRI-nu/nu mouse; format: ADME, organism-based; conditions: in vivo
[27] = Oral bioavailability in male RH:Foxn1 nude rat; format: ADME, organism-based; conditions: in vivo
[28] = Clearance in male RH:Foxn1 nude rat; format: ADME; conditions: in vivo
[29] = Volume of distribution at steady state in female NMRI-nu/nu mouse; format: ADME; conditions: in vivo, read-out: Vdss
[30] = Intermediate elimination half life in female NMRI-nu/nu mouse; format: ADME; conditions: in vivo, read-out: beta t1/2 (converted)
[31] = Intermediate elimination half life in male RH:Foxn1 nude rat; format: ADME; conditions: in vivo, read-out: beta t1/2 (converted)
[32] = system: MV4-11; test: Induction of cell cycle arrest in human MV4-11 cells assessed as increase in sub G1/G2 DNA content at 20 uM (reference value: 64%); format: functional

T1 sequence (Q9BUB5 whole entry): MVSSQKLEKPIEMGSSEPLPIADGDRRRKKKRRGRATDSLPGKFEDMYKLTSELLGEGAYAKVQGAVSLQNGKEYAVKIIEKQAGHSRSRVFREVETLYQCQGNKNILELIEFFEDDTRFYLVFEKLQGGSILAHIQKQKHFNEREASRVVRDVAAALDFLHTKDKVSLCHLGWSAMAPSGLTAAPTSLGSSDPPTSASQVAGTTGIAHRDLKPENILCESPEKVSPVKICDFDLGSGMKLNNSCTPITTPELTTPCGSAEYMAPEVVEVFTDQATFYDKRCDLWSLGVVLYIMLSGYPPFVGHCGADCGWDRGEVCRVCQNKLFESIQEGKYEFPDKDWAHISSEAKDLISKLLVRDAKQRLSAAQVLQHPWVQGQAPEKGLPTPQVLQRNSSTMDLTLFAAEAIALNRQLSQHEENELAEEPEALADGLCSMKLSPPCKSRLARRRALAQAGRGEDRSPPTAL
Chain of Tyrosine-protein kinase BTK (Q06187 whole entry): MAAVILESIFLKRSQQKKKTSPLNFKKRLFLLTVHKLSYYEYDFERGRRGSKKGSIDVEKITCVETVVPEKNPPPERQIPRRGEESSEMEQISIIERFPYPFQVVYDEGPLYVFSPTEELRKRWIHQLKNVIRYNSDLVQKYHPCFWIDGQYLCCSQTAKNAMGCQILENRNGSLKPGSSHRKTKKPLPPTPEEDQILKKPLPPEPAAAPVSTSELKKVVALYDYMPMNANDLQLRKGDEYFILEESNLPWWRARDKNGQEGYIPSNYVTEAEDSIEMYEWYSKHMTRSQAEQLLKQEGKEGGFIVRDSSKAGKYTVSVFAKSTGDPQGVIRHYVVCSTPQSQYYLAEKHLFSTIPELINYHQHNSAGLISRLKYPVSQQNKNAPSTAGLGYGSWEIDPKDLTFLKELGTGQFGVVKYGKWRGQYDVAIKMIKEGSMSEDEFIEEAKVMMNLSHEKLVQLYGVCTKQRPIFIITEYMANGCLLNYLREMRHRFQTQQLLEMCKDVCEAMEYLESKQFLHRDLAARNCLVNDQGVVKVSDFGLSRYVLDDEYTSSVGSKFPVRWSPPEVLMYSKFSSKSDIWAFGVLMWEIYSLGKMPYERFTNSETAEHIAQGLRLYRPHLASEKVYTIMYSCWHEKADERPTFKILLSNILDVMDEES

CC(C)Oc1cc(C#N)ccc1Nc1ncnc2ccn(C)c12
IC50 ([1]; read-out: pIC50 (converted)): 50.1 nM
IC50 [2]: 25.1 nM

CC1(C)CN(c2ncnc3sc(C(=O)NCC4CCNCC4)nc23)c2ccccc21
IC50 ([1]; read-out: pIC50 (converted)): 3.16 nM
IC50 [2]: 2.51 nM

O=C(NCC1CCNCC1)c1nc2c(N3CCc4cc(F)ccc43)ncnc2s1
IC50 ([1]; read-out: pIC50 (converted)): 5.01 nM
IC50 [2]: 3.98 nM

CO[C@@H]1COC[C@@H]1Oc1cc(F)ccc1Nc1ncnc2cc(N=S(C)(C)=O)cc(C)c12
IC50 [1]: 80 nM

CNC(=O)c1nc2c(Nc3ccc(F)cc3OC(C)C)ncnc2s1
IC50 ([1]; read-out: pIC50 (converted)): 50.1 nM
IC50 [2]: 31.6 nM

CN(C)CCCNC(=O)c1cc2ncnc(N3CCc4cc(F)ccc43)c2n1C
IC50 ([1]; read-out: pIC50 (converted)): 12.6 nM
IC50 [2]: 12.6 nM

O=S1(=Nc2cc(Cl)c3c(Nc4ccc(F)cc4O[C@H]4COC[C@@H]4O)ncnc3c2)CCC1
IC50 [1]: 18 nM

O=C(NCC1CCNCC1)c1nc2c(N3CCc4cc(Cl)ccc43)ncnc2s1
IC50 ([1]; read-out: pIC50 (converted)): 3.16 nM
IC50 [2]: 3.16 nM

Fc1ccc(Nc2ncnc3[nH]ccc23)nc1
GI50 [3]: 8190 nM
Ki [4]: 1080 nM
Ki [5]: 430 nM

COc1cc(N=S(C)(=O)C(C)(C)C)cc2ncnc(Nc3ccc(F)cc3O[C@H]3COC[C@H]3O)c12 (stereo partly drawn)
IC50 [1]: 329 nM

Cc1c(C(=O)O)sc2ncnc(Nc3ccc(F)cc3OC(CF)CF)c12
IC50 [6]: 50000 nM
IC50 [7]: 147000 nM

CN(Cc1ccon1)Cc1cc(-c2ccnc3cc(Cl)ccc23)ccc1O
IC50 [8]: 4700 nM
IC50 [9]: 2600 nM

CN(C)CCCNC(=O)c1nc2c(N3CCc4ccccc43)ncnc2s1
IC50 ([1]; read-out: pIC50 (converted)): 10 nM
IC50 [2]: 7.94 nM

CN(C)CCCNC(=O)c1nc2c(N3CCc4cc(F)ccc43)ncnc2s1
IC50 ([1]; read-out: pIC50 (converted)): 2.51 nM
IC50 [2]: 2 nM

Cn1ccc2ncnc(Nc3ccc(F)cc3OC3CCCC3)c21
IC50 ([1]; read-out: pIC50 (converted)): 126 nM
IC50 [2]: 31.6 nM

CN1CCC(C(=O)Nc2ncc(-c3ccccc3)s2)CC1
IC50 [10]: 21 nM

Cc1ncc(C(=O)Nc2ccc(CN3CCN(C)CC3)c(C(F)(F)F)c2)cc1C#Cc1cnc2cccnn12
inhibition [11]: 51%

Cc1c(-c2ccnc(Nc3ccccc3OC(F)F)n2)sc(=O)n1C
Ki [12]: 120 nM
GI50 [13]: 780 nM
GI50 [14]: 880 nM

Cn1ccc2ncnc(Nc3ccc(F)cc3OC(CF)CF)c21
IC50 ([1]; read-out: pIC50 (converted)): 158 nM
IC50 [2]: 50.1 nM

C=CC(=O)Nc1cc(-n2c(=O)ccc3cnc4ccc(-c5cn[nH]c5)cc4c32)ccc1C
IC50 [15]: 55.7 nM
IC50 [16]: 107 nM
IC50 [17]: 9.4 nM
IC50 [18]: 26 nM

CN(C)CCCNC(=O)c1nc2c(N3CC(C)(C)c4ccccc43)ncnc2s1
IC50 ([1]; read-out: pIC50 (converted)): 6.31 nM
IC50 [2]: 3.98 nM

COc1cc(N=S2(=O)CCC2)cc2ncnc(Nc3cccnc3O[C@H]3COC[C@H]3O)c12
IC50 [1]: 104 nM

CC(C)Oc1cc(F)ccc1Nc1ncnc2cc(C(=O)NCC3CCNCC3)n(C)c12
IC50 ([1]; read-out: pIC50 (converted)): 39.8 nM
IC50 [2]: 39.8 nM

CC(C)Oc1cc(F)ccc1Nc1ncnc2cc(C(=O)NCCCN(C)C)n(C)c12
IC50 ([1]; read-out: pIC50 (converted)): 50.1 nM
IC50 [2]: 39.8 nM

Cc1ccc(C(=O)Nc2ccc(CN3CCN(C)CC3)c(C(F)(F)F)c2)cc1C#Cc1cnc2cccnn12
inhibition [11]: 32%

O=C1NC2(CCCCC2)n2c1c(Cl)cc(Nc1ccncn1)c2=O
GI50 [19]: < 10000 nM
GI50 [20]: < 10000 nM
GI50 [21]: < 10000 nM
GI50 [22]: < 10000 nM

COc1ncc(C)cc1Nc1ncnc2[nH]ccc12
GI50 [3]: 4640 nM
Ki [4]: 740 nM
Ki [5]: 1320 nM

CC(C)Oc1cc(F)ccc1Nc1ncnc2sc(C(=O)NCC3CCNCC3)nc12
IC50 ([1]; read-out: pIC50 (converted)): 50.1 nM
IC50 [2]: 50.1 nM

CO[C@@H]1COC[C@@H]1Oc1cc(F)ccc1Nc1ncnc2cc(N=S3(=O)CCCC3)cc(Cl)c12
IC50 [1]: 45 nM

CC(C)Oc1cc(F)ccc1Nc1ncnc2sc(C(=O)NCCN3CCNCC3)nc12
IC50 ([1]; read-out: pIC50 (converted)): 50.1 nM
IC50 [2]: 31.6 nM

Cn1ccc2ncnc(Nc3ccc(F)cc3O[C@@H]3CCCOC3)c21
IC50 ([1]; read-out: pIC50 (converted)): 63.1 nM
IC50 [2]: 31.6 nM

Fc1ccc2c(c1)CCN2c1ncnc2cc[nH]c12
IC50 ([1]; read-out: pIC50 (converted)): 39.8 nM
IC50 [2]: 31.6 nM

C[C@H](CN)Oc1ccc2ncc(-c3cc4ccccc4o3)n2n1
Vd [23]: 0.87 L/kg
T/C [24]: 0.33
clearance [25]: 39 mL/min/kg
bioavailability [26]: 71%
bioavailability [27]: 78%
clearance [28]: 6.83 mL/min/kg
Vd [29]: 6 L/kg
half-life [30]: 1.2 h
half-life [31]: 1.2 h

Nc1cccc2c1cnn2-c1ncnc2[nH]ccc12
Activity [32]: 92%
